Data as given in PMC9504419, “Multipotent Cholinesterase Inhibitors for the Treatment of Alzheimer’s Disease: Synthesis, Biological Analysis and Molecular Docking Study of Benzimidazole-Based Thiazole Derivatives” (Molecules, 2022).
Read-outs that look alike come from different tables or passages of the source.

Tests used:
brain AChE = conditions: similar degree of brain AChE inhibition; cited from earlier work
BuChE = BuChE (Homo sapiens, UniProt P06276); assay: biochemical; type: biochemical
Method: (§1) The inhibition of AChE and BChE was determined using a method described earlier. Briefly, the stock solutions (1 mg/mL) of test analogues were prepared using DMSO. The working solutions (1–100 μg/mL) were prepared using serial dilutions (a serial dilution means a series of diluted solutions, e.g., 0.1 mg/mL, 0.2 mg/mL and so on; the solutions contained 5% DMSO and 95% water). The various concentrations of test compounds (10 μL) were pre-incubated with sodium phosphate buffer (0.1 M; pH 8.0; 150 μL) and AChE (0.1 U/mL; 20 μL) for 15 min at 25 °C. The reaction was initiated via the addition of DTNB (1 mM; 10 μL) and […] (1 mM; 10 μL). The mixture of reaction was mixed using a cyclomixer and incubated for 10 min at 25 °C. The absorbance was measured using a microplate reader at a 410 nm wavelength against the blank reading containing 10μL DMSO instead of the test compound (the solution contained 5% DMSO and 95% water).
(§2) % Inhibition = (Absorbance of control—Absorbance of compound)/Absorbance of control × 100

AChE = AChE (Homo sapiens, UniProt P22303); assay: biochemical; type: biochemical; conditions: for Selectivity Index: AChE and BuChE IC50 values
Method: as §1, §2

Sequence of AChE (P22303 32-614): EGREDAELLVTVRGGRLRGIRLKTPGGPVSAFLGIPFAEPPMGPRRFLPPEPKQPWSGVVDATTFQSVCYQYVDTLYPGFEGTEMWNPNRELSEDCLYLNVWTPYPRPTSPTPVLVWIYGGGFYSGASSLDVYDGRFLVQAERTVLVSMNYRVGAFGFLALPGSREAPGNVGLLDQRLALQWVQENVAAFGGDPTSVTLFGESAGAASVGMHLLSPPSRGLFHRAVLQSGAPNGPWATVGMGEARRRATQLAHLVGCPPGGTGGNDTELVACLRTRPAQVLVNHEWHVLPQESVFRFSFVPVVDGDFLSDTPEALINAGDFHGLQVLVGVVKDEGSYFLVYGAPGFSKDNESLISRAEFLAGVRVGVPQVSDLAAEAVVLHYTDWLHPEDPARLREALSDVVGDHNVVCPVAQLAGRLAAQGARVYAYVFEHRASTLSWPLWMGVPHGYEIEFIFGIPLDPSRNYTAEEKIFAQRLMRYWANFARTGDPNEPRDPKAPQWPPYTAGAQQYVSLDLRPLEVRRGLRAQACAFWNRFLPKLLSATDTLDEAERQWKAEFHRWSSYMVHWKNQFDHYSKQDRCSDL
Sequence of BuChE (P06276 29-602): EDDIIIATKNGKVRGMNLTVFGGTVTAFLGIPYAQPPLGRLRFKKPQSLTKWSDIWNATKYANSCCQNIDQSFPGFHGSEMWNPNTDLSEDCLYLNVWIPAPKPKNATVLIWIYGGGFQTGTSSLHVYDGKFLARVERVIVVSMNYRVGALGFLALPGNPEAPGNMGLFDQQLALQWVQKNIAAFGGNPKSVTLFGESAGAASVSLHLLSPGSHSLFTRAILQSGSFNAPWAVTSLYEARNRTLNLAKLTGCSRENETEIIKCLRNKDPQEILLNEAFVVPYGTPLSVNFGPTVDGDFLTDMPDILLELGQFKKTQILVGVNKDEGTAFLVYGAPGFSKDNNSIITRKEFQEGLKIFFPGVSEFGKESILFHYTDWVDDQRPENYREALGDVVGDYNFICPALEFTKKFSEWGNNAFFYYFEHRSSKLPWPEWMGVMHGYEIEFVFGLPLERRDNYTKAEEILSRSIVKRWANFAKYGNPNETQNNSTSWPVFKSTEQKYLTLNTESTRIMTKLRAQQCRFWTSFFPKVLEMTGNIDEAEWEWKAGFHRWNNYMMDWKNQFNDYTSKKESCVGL

Row | SMILES | doses needed, times greater than those of Donepezil (brain AChE) | IC50 (BuChE; read-out: IC50BuChE) [nM] | IC50 (AChE; read-out: IC50AChE) [nM] | Selectivity Index (AChE) | IC50 (BuChE) [nM] | IC50 (AChE) [nM] | IC50BuChE (BuChE) | IC50AChE (AChE)
1 | COc1ccc2c3c1O[C@H]1C[C@@H](O)C=C[C@@]31CCN(C)C2 [Galantamine] | 3–15 times | – | – | – | – | – | – | –
2 | O=[N+]([O-])c1cc(O)c(Cl)cc1-c1csc(N/N=C(/CSc2nc3ccccc3[nH]2)c2ccccc2O)n1 [compound 2, (E)-4-(2-(2-(2-((1H-benzo[d]imidazol-2-yl)thio)-1-(2-hydroxyphenyl)ethylidene)hydrazinyl)thiazol-4-yl)-2-chloro-5-nitrophenol] | – | 3200 ± 100 | 2300 ± 100 | – | – | – | – | –
3 | Oc1ccc(-c2csc(N/N=C(/CSc3nc4ccccc4[nH]3)c3ccccc3)n2)cc1 [compound 3, (E)-4-(2-(2-(2-((1H-benzo[d]imidazol-2-yl)thio)-1-phenylethylidene) hydrazinyl)thiazol-4-yl)phenol] | – | 1800 ± 100 | 800 ± 100 | 2.25 | – | – | – | –
4 | COc1cccc(-c2csc(N/N=C(/CSc3nc4ccccc4[nH]3)c3ccccc3)n2)c1 [compound 4, (E)-2-(2-(2-((1H-benzo[d]imidazol-2-yl)thio)-1-phenylethylidene)hydrazinyl)-4-(3-methoxyphenyl)thiazole] | – | 5300 ± 100 | 3500 ± 100 | 1.51 | – | – | – | –
5 | Cc1ccc(-c2csc(N/N=C(/CSc3nc4ccccc4[nH]3)c3ccccc3)n2)cc1 [compound 5, (E)-2-(2-(2-((1H-benzo[d]imidazol-2-yl)thio)-1-phenylethylidene)hydrazinyl)-4-(p-tolyl)thiazole] | – | 10700 ± 200 | 8600 ± 200 | 1.24 | – | – | – | –
6 | Clc1ccc(-c2csc(N/N=C(/CSc3nc4ccccc4[nH]3)c3ccccc3)n2)cc1Cl [compound 6, (E)-2-(2-(2-((1H-benzo[d]imidazol-2-yl)thio)-1-phenylethylidene)hydrazinyl)-4-(3,4-dichlorophenyl)thiazole] | – | 1400 ± 50 | 700 ± 50 | 2.0 | – | – | – | –
7 | Cc1ccc(/C(CSc2nc3ccccc3[nH]2)=N\Nc2nc(-c3ccccc3[N+](=O)[O-])cs2)cc1 [compound 7, (E)-2-(2-(2-((1H-benzo[d]imidazol-2-yl)thio)-1-(p-tolyl)ethylidene)hydrazinyl)-4-(2-nitrophenyl)thiazole] | – | 3500 ± 100 | 2900 ± 100 | 1.21 | – | – | – | –
8 | Cc1ccc(/C(CSc2nc3ccccc3[nH]2)=N\Nc2nc(-c3cccc([N+](=O)[O-])c3)cs2)cc1 [compound 8, (E)-2-(2-(2-((1H-benzo[d]imidazol-2-yl)thio)-1-(p-tolyl)ethylidene)hydrazinyl)-4-(3-nitrophenyl)thiazole] | – | 7900 ± 100 | 6300 ± 100 | 1.25 | – | – | – | –
9 | O=[N+]([O-])c1cc(O)c(Cl)cc1-c1csc(N/N=C(/CSc2nc3ccccc3[nH]2)c2cccc(O)c2[N+](=O)[O-])n1 [compound 9, (E)-4-(2-(2-(2-((1H-benzo[d]imidazol-2-yl)thio)-1-(3-hydroxy-2-nitrophenyl)ethylidene)hydrazinyl)thiazol-4-yl)-2-chloro-5-nitrophenol] | – | – | – | 2.46 | 3200 ± 100 | 1300 ± 100 | – | –
10 | CN(C)c1cc([N+](=O)[O-])c(-c2csc(N/N=C(/CSc3nc4ccccc4[nH]3)c3ccc(-c4ccccc4)cc3)n2)cc1O [compound 10, (E)-5-(2-(2-(2-((1H-benzo[d]imidazol-2-yl)thio)-1-([1,1’-biphenyl]-4-yl)ethylidene)hydrazinyl)thiazol-4-yl)-2-(dimethylamino)-4-nitrophenol] | – | – | – | – | – | – | inactivity | inactivity
11 | Cc1ccc(/C(CSc2nc3ccccc3[nH]2)=N\Nc2nc(-c3ccc(Cl)c(Cl)c3)cs2)cc1 [compound 11, (E)-2-(2-(2-((1H-benzo[d]imidazol-2-yl)thio)-1-(p-tolyl)ethylidene)hydrazinyl)-4-(3,4-dichlorophenyl)thiazole] | – | 1100 ± 100 | 400 ± 50 | 2.75 | – | – | – | –
12 | Cc1ccc(/C(CSc2nc3ccccc3[nH]2)=N\Nc2nc(-c3cc(Cl)c(O)cc3[N+](=O)[O-])cs2)c([N+](=O)[O-])c1 [compound 12, (E)-4-(2-(2-(2-((1H-benzo[d]imidazol-2-yl)thio)-1-(4-methyl-2-nitrophenyl)ethylidene)hydrazinyl)thiazol-4-yl)-2-chloro-5-nitrophenol] | – | – | – | 1.5 | 2100 ± 100 | 1400 ± 100 | – | –
13 | Cc1ccc(-c2csc(N/N=C(/CSc3nc4ccccc4[nH]3)c3ccccc3[N+](=O)[O-])n2)cc1 [compound 13, (E)-2-(2-(2-((1H-benzo[d]imidazol-2-yl)thio)-1-(2-nitrophenyl)ethylidene) hydrazinyl)-4-(p-tolyl)thiazole] | – | 5100 ± 100 | 3200 ± 100 | 1.59 | – | – | – | –
14 | COc1cccc(-c2csc(N/N=C(/CSc3nc4ccccc4[nH]3)c3ccccc3[N+](=O)[O-])n2)c1 [compound 14, (E)-2-(2-(2-((1H-benzo[d]imidazol-2-yl)thio)-1-(2-nitrophenyl)ethylidene) hydrazinyl)-4-(3-methoxyphenyl)thiazole] | – | 4200 ± 100 | 3100 ± 100 | 1.35 | – | – | – | –
15 | O=[N+]([O-])c1ccccc1/C(CSc1nc2ccccc2[nH]1)=N\Nc1nc(-c2ccc(Cl)c(Cl)c2)cs1 [compound 15, (E)-2-(2-(2-((1H-benzo[d]imidazol-2-yl)thio)-1-(2-nitrophenyl)ethylidene) hydrazinyl)-4-(3,4-dichlorophenyl)thiazole] | – | 700 ± 50 | 300 ± 50 | 2.33 | – | – | – | –
16 | O=[N+]([O-])c1ccccc1/C(CSc1nc2ccccc2[nH]1)=N\Nc1nc(-c2ccc(O)cc2)cs1 [compound 16, (E)-4-(2-(2-(2-((1H-benzo[d]imidazol-2-yl)thio)-1-(2-nitrophenyl)ethylidene) hydrazinyl)thiazol-4-yl)phenol] | – | 500 ± 50 | 200 ± 50 | 2.5 | – | – | – | –
17 | O=[N+]([O-])c1ccccc1-c1csc(N/N=C(/CSc2nc3ccccc3[nH]2)c2ccc(Cl)c(Cl)c2)n1 [compound 17, (E)-2-(2-(2-((1H-benzo[d]imidazol-2-yl)thio)-1-(3,4-dichlorophenyl)ethylidene) hydrazinyl)-4-(2-nitrophenyl)thiazole] | – | 1800 ± 100 | 1100 ± 50 | 1.64 | – | – | – | –
18 | O=[N+]([O-])c1cccc(-c2csc(N/N=C(/CSc3nc4ccccc4[nH]3)c3ccc(Cl)c(Cl)c3)n2)c1 [compound 18, (E)-2-(2-(2-((1H-benzo[d]imidazol-2-yl)thio)-1-(3,4-dichlorophenyl)ethylidene) hydrazinyl)-4-(3-nitrophenyl)thiazole] | – | 1200 ± 100 | 700 ± 50 | 1.71 | – | – | – | –
19 | Cc1ccc(-c2csc(N/N=C(/CSc3nc4ccccc4[nH]3)c3ccc(Cl)c(Cl)c3)n2)cc1 [compound 19, (E)-2-(2-(2-((1H-benzo[d]imidazol-2-yl)thio)-1-(3,4-dichlorophenyl)ethylidene) hydrazinyl)-4-(p-tolyl)thiazole] | – | 1300 ± 100 | 1400 ± 100 | 0.92 | – | – | – | –
20 | COc1cccc(-c2csc(N/N=C(/CSc3nc4ccccc4[nH]3)c3ccc(Cl)c(Cl)c3)n2)c1 [compound 20, (E)-2-(2-(2-((1H-benzo[d]imidazol-2-yl)thio)-1-(3,4-dichlorophenyl)ethylidene) hydrazinyl)-4-(3-methoxyphenyl)thiazole] | – | 1900 ± 100 | 1200 ± 100 | 1.58 | – | – | – | –
21 | Clc1ccc(/C(CSc2nc3ccccc3[nH]2)=N\Nc2nc(-c3ccc(Cl)c(Cl)c3)cs2)cc1Cl [compound 21, (E)-2-(2-(2-((1H-benzo[d]imidazol-2-yl)thio)-1-(3,4-dichlorophenyl)ethylidene) hydrazinyl)-4-(3,4-dichlorophenyl)thiazole] | – | 200 ± 50 | 100 ± 50 | 2.0 | – | – | – | –
22 | COc1ccccc1-c1csc(N/N=C(/CSc2nc3ccccc3[nH]2)c2ccc(Cl)c(Cl)c2)n1 [compound 22, (E)-2-(2-(2-((1H-benzo[d]imidazol-2-yl)thio)-1-(3,4-dichlorophenyl)ethylidene) hydrazinyl)-4-(2-methoxyphenyl)thiazole] | – | 700 ± 100 | 400 ± 200 | 1.75 | – | – | – | –
23 | Clc1ccc(/C(CSc2nc3ccccc3[nH]2)=N\Nc2nc(-c3ccc(Br)cc3)cs2)cc1Cl [compound 23, (E)-2-(2-(2-((1H-benzo[d]imidazol-2-yl)thio)-1-(3,4-dichlorophenyl)ethylidene) hydrazinyl)-4-(4-bromophenyl)thiazole] | – | 6700 ± 100 | 4700 ± 100 | 1.43 | – | – | – | –
24 | Cc1ccc(/C(CSc2nc3ccccc3[nH]2)=N\Nc2nc(-c3ccc(C)cc3)cs2)cc1 [compound 24, (E)-2-(2-(2-((1H-benzo[d]imidazol-2-yl)thio)-1-(p-tolyl)ethylidene)hydrazinyl)-4-(p-tolyl)thiazole] | – | 14200 ± 100 | 11100 ± 300 | 1.28 | – | – | – | –
